Experiment [1] deals with T-Rex 293 cell line SC3 cells lacking increased expression of androgen receptor protein. Description: Cellular growth inhibition, T-Rex 293 SC3 cells without doxycycline, CellTiter-Glo. The experiment is classed as cell-based. As to conditions: T-Rex 293 SC3 cells not exposed to doxycycline, CellTiter-Glo 2.0. On the procedure: (§1) The following types of cells were prepared for this experiment: (i) a T-Rex 293 cell line having increased expression of androgen receptor protein due to exposure to doxycycline and (ii) a T-Rex 293 cell line lacking increased expression of androgen receptor protein. Ability of the test compounds to inhibit proliferation of the foregoing cell types was evaluated according to the procedures set forth below.
(§2) The doxycycline-inducible androgen receptor protein expressing cell line was established using the following protocol: T-Rex 293 cells were purchased from Invitrogen (Cat #R71007) and transfected using Lipofectamine 2000 with the wild-type androgen receptor protein sequence cloned into the pcDNA4/TO vector. Transfected cells were selected using 400 μg/mL Zeocin (Invitrogen Cat #R25001). Following selection, single clones were raised and maintained in Dulbecco's Modified Eagle Medium (DMEM) supplemented with 10% w/w Tetracycline-free fetal bovine serum (FBS) and 250 μg/mL Zeocin. Clones were analyzed for expression of androgen receptor protein in the presence and absence of 10 ng/mL doxycycline (Sigma Cat #D9891), and a single doxycycline-inducible clone (hereinafter “SC3”) was selected for use in downstream assays.
(§3) The SC3 cells were seeded on poly-D-lysine coated, black clear-bottom 384-well plates at 2500/well, in 25 μL Phenol Red Free Dulbecco's Modified Eagle Medium (DMEM) supplemented with 10% w/w charcoal-dextran treated fetal bovine serum (FBS) and 1% w/w pen-strep, with or without 10 ng/mL doxycycline. Pen-Strep is a commercially available mixture of penicillin G and streptomycin, which is used in mammalian cell culture media to prevent bacterial contamination. Phenol Red Free Dulbecco's Modified Eagle Medium (DMEM) supplemented with 10% w/w charcoal-dextran treated fetal bovine serum (FBS) and 1% w/w pen-strep, with or without 10 ng/mL doxycycline is herein referred to as Treatment Medium. Following seeding of cells in the plates, the plates were spun at 300×g for 30 seconds, then equilibrated to room temperature for 30 minutes, and then deposited in a humidified tissue culture incubator maintained at 37° C. with 5% CO2.
(§4) At 24 hours after seeding of the cells, dilutions of test compound were prepared in DMSO and dissolved in Treatment Medium, to achieve a final DMSO concentration of 0.5% w/w, thereby providing the Test Compound Solution. A 25 μL aliquot of the Test Compound Solution was added to cells in the well plates. An equal volume of a solution containing DMSO and Treatment Medium was used as a negative control. Following treatment of cells with Test Compound Solution or said equal volume of a solution containing DMSO and Treatment Medium, the plates were spun at 300×g for 30 seconds, and then left in an incubator for 72 hours. At the end of the treatment duration, cell viability was quantified with CellTiter-Glo 2.0 reagent (Promega Cat #G9243). For this purpose, plates were equilibrated to room temperature for 30 minutes, and then 25 μL of CellTiter-Glo 2.0 reagent was added to cells in the plate wells. Plates were then agitated on a shaker for two minutes at 500 rpm and subsequently incubated at room temperature for 10 minutes. Following incubation, the plates were spun at 3000×g for 30 seconds, then sealed with an optical adhesive cover, and luminescence readings were measured with an EnVision Plate Reader. Data was normalized using zero luminescence for baseline. A four-parameter non-linear regression curve fit was applied to dose-response data in GraphPad Prism data analysis software to determine the half-maximal growth inhibitory concentration (GI50) for each test compound.

The next experiment concerns VCaP cells. Description: Cellular growth inhibition assay for VCaP cells, CellTiter-Glo. The experiment is classed as cell-based, human. Particulars: Homo sapiens, VCaP, 72 h, 72 hours treatment, CellTiter-Glo 2.0. As to the method:
VCaP cells were purchased from American Type Cell Culture (ATCC Cat #CRL2876) and then seeded on poly-D-lysine coated, black clear-bottom 384-well plates at 5000/well in 25 μL Dulbecco's Modified Eagle Medium (DMEM) supplemented with 10% w/w Fetal bovine serum (FBS) and 1% w/w Pen-Strep. Pen-Strep is a commercially available mixture of penicillin G and streptomycin, which is used in mammalian cell culture media to prevent bacterial contamination. Dulbecco's Modified Eagle Medium (DMEM) supplemented with 10% w/w fetal bovine serum (FBS) and 1% w/w Pen-Strep is herein referred to as Treatment Medium. Following seeding of cells in the plates, the plates were spun at 300×g for 30 seconds, then equilibrated to room temperature for 30 minutes, and then deposited in a humidified tissue culture incubator maintained at 37° C. with 5% CO2.
At 24 hours after seeding of the cells, dilutions of test compound were prepared in DMSO and dissolved in Treatment Medium, to achieve a final DMSO concentration of 0.5% w/w, thereby providing the Test Compound Solution. A 25 μL aliquot of the Test Compound Solution was added to cells in the well plates. An equal volume of a solution containing DMSO and Treatment Medium was used as a negative control. Following treatment of cells with Test Compound Solution or said equal volume of a solution containing DMSO and Treatment Medium, the plates were spun at 300×g for 30 seconds, and then left in an incubator for 72 hours.
At the end of the treatment duration, cell viability was quantified with CellTiter-Glo 2.0 reagent (Promega Cat #G9243). For this purpose, plates were equilibrated to room temperature for 30 minutes, and then 25 μL of CellTiter-Glo 2.0 reagent was added to cells in the plate wells. Plates were then agitated on a shaker for two minutes at 500 rpm and subsequently incubated at room temperature for 10 minutes. Following incubation, the plates were spun at 3000×g for 30 seconds, then sealed with an optical adhesive cover, and luminescence readings were measured with an EnVision Plate Reader.
Data was normalized using zero luminescence for baseline. A four-parameter non-linear regression curve fit was applied to dose-response data in GraphPad Prism data analysis software to determine the half-maximal growth inhibitory concentration (GI50) for each test compound.

The test system of experiment [2] is T-Rex 293 cell line SC3 cells having increased expression of androgen receptor protein due to exposure to doxycycline. Description: Cellular growth inhibition, T-Rex 293 SC3 cells with doxycycline (androgen receptor induced), CellTiter-Glo. The format is cell-based. Particulars: 72 h, T-Rex 293 SC3 cells with 10 ng/mL doxycycline (increased androgen receptor expression). As to the method:
as §1, §2, §3, §4

The subject of another experiment is T47D cells. Description: Cellular growth inhibition assay for T47D cells, CellTiter-Glo. The experiment is classed as cell-based, human. As to conditions: Homo sapiens, T47D, 72 h, 72 hours treatment, CellTiter-Glo 2.0 cell viability. Put shortly:
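Cells are plated at 3000/well and allowed 24 h before treatment. Test compound in medium containing 0.5% DMSO is then added, with DMSO-only wells as negative control, and plates are incubated 72 h at 37 °C. ATP luminescence (CellTiter-Glo 2.0) is then fitted to four parameters to derive GI50.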

Where only a bound is given, the exact number is not on record here.

`Cc1sc2c(c1C)C(c1ccc(N3CCC4(CC3)CC(Nc3ncc(C(=O)N[C@H]5C(C)(C)[C@H](Oc6ccc(C#N)c(Cl)c6)C5(C)C)cn3)C4)cc1)=N[C@@H](Cc1ncco1)c1nnc(C)n1-2` [Compound I-668]: the GI50 (in experiment [1] (72 h); with VCaP cells; in experiment [2]) was less than 500 nM throughout.
For `Cc1sc2c(c1C)C(c1ccc(Cl)cc1)=N[C@@H](CC(=O)NCCOCCOCCN(C)c1ncc(C(=O)N[C@H]3C(C)(C)[C@H](Oc4ccc(C#N)c(Cl)c4)C3(C)C)cn1)c1nnc(C)n1-2` [Compound I-2, N-[3-(3-chloro-4-cyano-phenoxy)-2,2,4,4-tetramethyl-cyclobutyl]-2-[2-[2-[2-[[2-[(9S)-7-(4-chlorophenyl)-4,5,13-trimethyl-3-thia-1,8,11,12-tetrazatricyclo[8.3.0.02,6]trideca-2(6),4,7,10,12-pentaen-9-yl]acetyl]amino]ethoxy]ethoxy]ethyl-methylamino]pyrimidine-5-carboxamide], the GI50 was 1500 to 3000 nM in experiment [1] (72 h), less than 500 nM in the experiment on VCaP cells and less than 500 nM in experiment [2].
For the molecule `CCNC(=O)C[C@@H]1N=C(c2ccc(OCCOCCOC3CCN(c4ncc(C(=O)N[C@H]5C(C)(C)[C@H](Oc6ccc(C#N)c(Cl)c6)C5(C)C)cn4)CC3)cc2F)c2c(sc(C)c2C)-n2c(C)nnc21` [Compound I-77], the GI50 was 500 to 1500 nM in experiment [1] (72 h), 500 to 1500 nM in the experiment with VCaP cells and less than 500 nM in experiment [2].
With `Cc1sc2c(c1C)C(c1ccc(Cl)cc1)=N[C@@H](CC(=O)NCCOCCCCCOC1CCN(c3ncc(C(=O)N[C@H]4C(C)(C)[C@H](Oc5ccc(C#N)c(Cl)c5)C4(C)C)cn3)CC1)c1nnc(C)n1-2` [Compound I-34], the 50% growth inhibitory concentration (GI50) (in experiment [1] (72 h); in the experiment on VCaP cells; in experiment [2]) was less than 500 nM throughout.
Consider `Cc1sc2c(c1C)C(c1ccc(Cl)cc1)=N[C@@H](CC(=O)NCCCOCCCOC1CCN(c3ncc(C(=O)N[C@H]4C(C)(C)[C@H](Oc5ccc(C#N)c(Cl)c5)C4(C)C)cn3)CC1)c1nnc(C)n1-2` [Compound I-29], for which the concentration for 50% growth inhibition (GI50) in experiment [1] (72 h) was 500 to 1500 nM; with VCaP cells it was less than 500 nM; in experiment [2] it was less than 500 nM.
Regarding `Cc1sc2c(c1C)C(c1ccc(N3CCC(C)(CNc4ncc(C(=O)N[C@H]5C(C)(C)[C@H](Oc6ccc(C#N)c(Cl)c6)C5(C)C)cn4)CC3)cc1)=NC(Cc1ncco1)c1nnc(C)n1-2` (some centres unmarked) [Compound I-667], the concentration for 50% growth inhibition (GI50) (in experiment [1] (72 h); in the experiment on VCaP cells; in experiment [2]) was less than 500 nM throughout.
Consider `Cc1sc2c(c1C)C(c1ccc(Cl)cc1)=N[C@@H](CC(=O)NCCCOCCCCOC1CCN(c3ncc(C(=O)N[C@H]4C(C)(C)[C@H](Oc5ccc(C#N)c(Cl)c5)C4(C)C)cn3)CC1)c1nnc(C)n1-2` [Compound I-33], for which the 50% growth inhibitory concentration (GI50) (in experiment [1] (72 h); in the experiment on VCaP cells; in experiment [2]) was less than 500 nM each time.
On to `Cc1sc2c(c1C)C(c1ccc(Cl)cc1)=NC(CC(=O)NCCOCCCCOC1CCN(c3ncc(C(=O)N[C@H]4C(C)(C)[C@H](Oc5ccc(C#N)c(Cl)c5)C4(C)C)cn3)CC1)c1nnc(C)n1-2` (some centres unmarked) [Compound I-30], for which the concentration for 50% growth inhibition (GI50) (in experiment [1] (72 h); with VCaP cells; in experiment [2]) was less than 500 nM throughout.
Take `Cc1sc2c(c1C)C(c1ccc(Cl)cc1)=N[C@@H](CC(=O)NCCOCCCOC1CCN(c3ncc(C(=O)N[C@H]4C(C)(C)[C@H](Oc5ccc(C#N)c(Cl)c5)C4(C)C)cn3)CC1)c1nnc(C)n1-2` [Compound I-27]: the figures for the GI50 (in experiment [1] (72 h); in the experiment with VCaP cells; in experiment [2]) were 500 to 1500 nM, less than 500 nM and less than 500 nM, respectively.
On to `Cc1sc2c(c1C)C(c1ccc(-n3cc(C4CCN(c5ncc(C(=O)N[C@H]6C(C)(C)[C@H](Oc7ccc(C#N)c(Cl)c7)C6(C)C)cn5)CC4)nn3)cc1)=N[C@@H](Cc1ncco1)c1nnc(C)n1-2` [Compound I-481], for which the concentration for 50% growth inhibition (GI50) in experiment [1] (72 h) is 500 to 1500 nM; in the experiment on VCaP cells, less than 500 nM; in experiment [2], less than 500 nM.
For `CCNC(=O)C[C@@H]1N=C(c2ccc(CCCCCOC3CCN(c4ncc(C(=O)N[C@H]5C(C)(C)[C@H](Oc6ccc(C#N)c(Cl)c6)C5(C)C)cn4)CC3)cc2)c2c(sc(C)c2C)-n2c(C)nnc21` [Compound I-89], the values for the GI50 (in experiment [1] (72 h); in the experiment on VCaP cells; in experiment [2]) were 500 to 1500 nM, 1500 to 3000 nM and less than 500 nM, respectively.
As to `CCNC(=O)C[C@@H]1N=C(c2ccc(CCCCCCOC3CCN(c4ncc(C(=O)N[C@H]5C(C)(C)[C@H](Oc6ccc(C#N)c(Cl)c6)C5(C)C)cn4)CC3)cc2)c2c(sc(C)c2C)-n2c(C)nnc21` [Compound I-90], the GI50 in experiment [1] (72 h) was more than 3000 nM; in the experiment with VCaP cells, more than 3000 nM; in experiment [2] it was less than 500 nM.
In the case of `Cc1sc2c(c1C)C(c1ccc(Cl)cc1)=N[C@@H](CC(=O)NCCCCCCOC1CCN(c3ncc(C(=O)N[C@H]4C(C)(C)[C@H](Oc5ccc(C#N)c(Cl)c5)C4(C)C)cn3)CC1)c1nnc(C)n1-2` [Compound I-23], the GI50 (in experiment [1] (72 h); with VCaP cells; in experiment [2]) was less than 500 nM in each case.
Turning to `Cc1sc2c(c1C)C(c1ccc(Cl)cc1)=N[C@@H](CC(=O)NCCCCCCCCOC1CCN(c3ncc(C(=O)N[C@H]4C(C)(C)[C@H](Oc5ccc(C#N)c(Cl)c5)C4(C)C)cn3)CC1)c1nnc(C)n1-2` [Compound I-25], the results for the concentration for 50% growth inhibition (GI50) (in experiment [1] (72 h); in the experiment on VCaP cells; in experiment [2]) were more than 3000 nM, more than 3000 nM and less than 500 nM, respectively.
As to `Cc1sc2c(c1C)C(c1ccc(OC[C@@H]3CCCN(c4cnc(C(=O)N[C@H]5C(C)(C)[C@H](Oc6ccc(C#N)c(Cl)c6)C5(C)C)cn4)C3)cc1)=N[C@@H](C)c1nnc(C)n1-2` [Compound I-588], the GI50 in experiment [1] (72 h) was more than 3000 nM; in experiment [2] it was less than 500 nM; with T47D cells, 500 to 1500 nM.
On to `Cc1sc2c(c1C)C(c1ccc(N3CC(N4CCN(c5ncc(C(=O)N[C@H]6C(C)(C)[C@H](Oc7ccc(C#N)c(Cl)c7)C6(C)C)cn5)CC4)C3)cc1)=NC(Cc1ncco1)c1nnc(C)n1-2` (some centres unmarked) [Compound I-628], for which the figures for the concentration for 50% growth inhibition (GI50) in experiment [1] (72 hours) and in experiment [2] were more than 3000 nM and less than 500 nM, respectively.
